This passage reports Kd results from PubChem BioAssay AID1552 (Sanford-Burnham Center for Chemical Genomics, 2009).

Activity calls are given as the source filed them. The rule behind the calls is not given here. Bounds are passed on as bounds.

This assay has as its target Ubiquitin-conjugating enzyme E2 N (Homo sapiens) (UniProt P61088). In words: UBE2N binders by NMR, biophysical, purified protein (AID 1552). Particulars: NMR binding to purified UBE2N.

Ubiquitin-conjugating enzyme E2 N (Homo sapiens), sequence (P61088 whole entry, looked up): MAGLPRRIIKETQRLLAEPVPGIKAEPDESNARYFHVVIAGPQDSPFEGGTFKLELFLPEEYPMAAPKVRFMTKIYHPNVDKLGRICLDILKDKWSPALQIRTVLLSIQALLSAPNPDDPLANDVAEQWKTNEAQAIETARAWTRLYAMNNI

In general, Kd refers to a measure of binding affinity in units of concentration. Turning to `O=C(Nc1ccncc1)c1cncc(Br)c1`, the Kd is > 4 mM (inactive). `CS(=O)(=O)N1CCN(c2ncccn2)CC1`: the Kd is > 4 mM (inactive). For `OCC1CCCN2CCCCC12` (stereo unspecified) the value was > 4 mM (inactive). In the case of `COc1ccc(/C=C2/N=C(N)SC2=O)cc1` it was > 4 mM (inactive); in that of `Cc1ccc2cc(CO)ccc2n1`, > 4 mM (inactive); in that of `COc1ccc(C(N)=O)cc1N`, > 4 mM (inactive). As for `COc1ncnc(N)c1[N+](=O)[O-]`, the Kd is > 4 mM (inactive). Take `CSc1ccc(/C=N/n2c(C)nnc2C)cc1`: the Kd was > 4 mM (inactive). Consider `Nc1cc(-c2ccco2)[nH]n1`, for which the Kd was > 4 mM (inactive). In the case of `CNC(=O)C(=O)NCc1ccc(C)cc1`, the Kd was > 4 mM (inactive).

In the case of `Cc1nccn1CCC(=O)O`, the Kd is > 4 mM (inactive). As for `Cc1ccc(S(=O)(=O)CCc2ccccn2)cc1`, the Kd was > 4 mM (inactive). As to `CC1=C(/C=C/C(C)=C/C=C/C(C)=C/CO)C(C)(C)CCC1`, the Kd is > 4 mM (inactive). Consider `Cc1ncc(C[n+]2csc3ccccc32)c(N)n1`, for which the Kd is > 4 mM (inactive).

For the compound `CC1SC(=NC(=O)c2ccco2)NC1=O` (stereo unspecified), the Kd was > 4 mM (inactive). In the case of `CC1(C)O[C@H]2CC(=O)OC[C@]23[C@H]2CC[C@@]4(C)[C@H](c5ccoc5)OC(=O)[C@H]5O[C@]54[C@]2(C)C(=O)C[C@@H]13` it was > 4 mM (inactive); in that of `O=c1cnnc(SCCc2ccccc2)[nH]1`, > 4 mM (inactive). On to `COc1cc2c(cc1OC)-c1nnnn1C(C)(C)C2`, for which the Kd is > 4 mM (inactive). `O=C1C=C(O)c2ccccc2C1=O`: the Kd is > 4 mM (inactive). In the case of `COc1cc2c3cc1Oc1cc(ccc1O)C[C@@H]1c4c(cc(OC)c(O)c4Oc4ccc(cc4)C[C@@H]3N(C)CC2)CC[N+]1(C)C` it was > 4 mM (inactive); in that of `O=C1CC[C@]23/C=C/C(=O)NCCCCNCCCNC(=O)/C=C/c4ccc(c2c4)O[C@@H]3C1`, > 4 mM (inactive). For `Cc1cc(C)nc(/N=C(/N)N2CCC(C(N)=O)CC2)n1` the value was > 4 mM (inactive); for `COCC(=O)Nc1cccc(Br)c1`, > 4 mM (inactive).

Consider `C#CCCCCCCCCCCCC(O)CC(O)COC(C)=O` (stereo unspecified), for which the Kd was > 4 mM (inactive). `COC(=O)Cc1cc(=O)n(-c2nc3ccccc3s2)[nH]1`: the Kd was > 4 mM (inactive).

With `COc1ccc(Cc2nnc3c4cnn(C)c4ncn23)cc1`, the Kd is > 4 mM (inactive). For the compound `CN1CCN(C(=O)Nc2cccc3ccccc23)CC1`, the Kd is > 4 mM (inactive).

`Oc1cc(O)c2c(c1)O[C@H](c1ccc(O)c(O)c1)[C@H](O)C2`: the Kd is > 4 mM (inactive).

Regarding `O=C(O)/C=C/c1ccc(O)c(O)c1`, the Kd was > 4 mM (inactive). For `O=C(O)/C=C(\CC(=O)O)C(=O)O` the value was > 4 mM (inactive); for `CCCCCc1c2c(cc(O)c1C(=O)O)OC(=O)c1c(cc(OC)cc1C(=O)CCCC)O2`, > 4 mM (inactive). As to `CN(c1ccccc1C(=O)N1CCCC1)S(C)(=O)=O`, the Kd was > 4 mM (inactive). In the case of `CC1CCN(C(=O)c2ccc(NS(C)(=O)=O)cc2)CC1` it was > 4 mM (inactive); in that of `Cc1cccc(CO)n1`, > 4 mM (inactive); in that of `NC1Cc2ccccc2C1`, > 4 mM (inactive). In the case of `CC(=O)NC(=S)Nc1ccc(N(C)C(C)=O)cc1` it was > 4 mM (inactive); in that of `CN(C)c1oc(-c2ccccc2Cl)nc1C#N`, > 4 mM (inactive). In the case of `O=C(O)c1cc(O)c2c(c1)C(=O)c1cc(O)cc(O)c1C2=O` it was > 4 mM (inactive); in that of `Cc1c(N=CN(C)C)c(=O)n(-c2ccccc2)n1C`, > 4 mM (inactive).

As for `Cc1cccc(N2C(=O)CC(=O)NC2=O)c1`, the Kd is > 4 mM (inactive). As to `CCOC(=O)CC1NCCNC1=O` (stereo unspecified), the Kd was > 4 mM (inactive). In the case of `O=c1nc(NCc2ccco2)sc2ncccc12` it was > 4 mM (inactive). In the case of `COc1ccc(C(N)=O)cc1NC(C)=O` it was > 4 mM (inactive); in that of `NC(=O)CSc1nc2[nH]ncc2c(=O)[nH]1`, > 4 mM (inactive). Consider `CCCS(=O)(=O)N1CCN(c2ccccn2)CC1`, for which the Kd was > 4 mM (inactive). For `O=C1NC(=O)C(C(=S)Nc2ccccc2)C(=O)N1`, the Kd was > 4 mM (inactive). In the case of `CCc1ccc(/C=N/n2cnnc2)cc1` it was > 4 mM (inactive); in that of `Cc1nc2ccccc2c(=O)n1NC(=O)C1CCCCC1`, > 4 mM (inactive); in that of `NC1CSCC1O` (stereo unspecified), > 4 mM (inactive). In the case of `Cc1c(N=CN2CCOCC2)c(=O)n(C)c(=O)n1C` it was > 4 mM (inactive); in that of `Cn1cnnc1SCC(=O)Nc1nccs1`, > 4 mM (inactive); in that of `NC(=O)C1CCN(c2ccc(Cl)nn2)CC1`, > 4 mM (inactive). Turning to `Cc1sc2nc(C)n(NC(N)=O)c(=O)c2c1C`, the Kd is > 4 mM (inactive). Consider `COc1ccc(N=C2NC(=O)CS2)cc1`, for which the Kd is > 4 mM (inactive). As for `COc1ccc([C@@H]2CC(=O)c3c(O)cc(O[C@@H]4O[C@H](CO[C@H]5O[C@@H](C)[C@H](O)[C@@H](O)[C@H]5O)[C@@H](O)[C@H](O)[C@H]4O)cc3O2)cc1O`, the Kd was > 4 mM (inactive). With `Cc1nc2ccc(C(=O)N3CCSCC3)cc2s1`, the Kd is > 4 mM (inactive). For `CC(=O)Nc1nnc(-c2ccccn2)o1` the value was > 4 mM (inactive); for `COc1ccc(-c2cc3nc4n(c(=O)c3s2)CCC4)cc1`, > 4 mM (inactive); for `Cc1nnc2sc(-c3ccco3)nn12`, > 4 mM (inactive). `CC(=O)O[C@@H]1CC[C@@]2(C)C(CC[C@]3(C)C2CC=C2C4CC(C)(C)CC[C@]4(C(=O)O)CC[C@]23C)C1(C)C` (stereo partly specified): the Kd was > 4 mM (inactive).

Turning to `Cn1nc(C(=O)Nc2cccnc2)cc1Cl`, the Kd was > 4 mM (inactive).

Consider `COc1c(C)c2c(c(O)c1C/C=C(\C)CCC(=O)O)C(=O)OC2`, for which the Kd is > 4 mM (inactive). On to `OCC1CN(Cc2ccccc2)CCO1` (stereo unspecified), for which the Kd is > 4 mM (inactive). For `c1ccc2c(c1)ncn2CCn1cnc2ccccc21` the value was > 4 mM (inactive); for `Cc1[nH]c2ccccc2c1CN(C)C`, > 4 mM (inactive); for `CNc1nnc(CSc2nc(C)cc(C)n2)s1`, > 4 mM (inactive). For `Cc1ccc(C2NS(=O)(=O)N=C2N)cc1` (stereo unspecified), the Kd was > 4 mM (inactive). On to `C=C(C)C1Cc2c(ccc(C(=O)O)c2O)O1` (stereo unspecified), for which the Kd is > 4 mM (inactive). As to `Cc1c(F)cccc1NS(=O)(=O)c1ccccc1C#N`, the Kd is > 4 mM (inactive).

Take `OC[C@H]1O[C@@](CO)(O[C@@H]2O[C@H](CO)[C@@H](O)[C@H](O)[C@H]2O)[C@@H](O[C@@H]2O[C@H](CO)[C@@H](O)[C@H](O)[C@H]2O)[C@@H]1O`: the Kd is > 4 mM (inactive). In the case of `CCOC(=O)CSCC(=O)Nc1nccs1` it was > 4 mM (inactive). With `O=S(=O)(Nc1ccc2c(c1)OCCO2)c1cccs1`, the Kd was > 4 mM (inactive). In the case of `COC(=O)Nc1nc2c(C)cccc2s1` it was > 4 mM (inactive); in that of `COc1ccc(S(=O)(=O)Nc2ccccn2)c(C)c1C`, > 4 mM (inactive); in that of `O=C(O)c1cccc2c1OCC2`, > 4 mM (inactive).

In the case of `O=C1c2cccnc2C(=O)N1Cc1ccc2c(c1)OCO2`, the Kd is > 4 mM (inactive).

For the compound `O=C(O)/C=C/C(=O)Nc1ccccc1C(F)(F)F`, the Kd was > 4 mM (inactive).

For `CC(=O)c1c(C)nc2ccccc2c1N`, the Kd is > 4 mM (inactive).

With `O=S1(=O)CCC2CC=CCC21` (stereo unspecified), the Kd was > 4 mM (inactive). For `COc1ccc(-c2oc3ccccc3c(=O)c2O)cc1OC`, the Kd was > 4 mM (inactive). `c1ccc(CNc2ncnc3nc[nH]c23)nc1`: the Kd was > 4 mM (inactive). As for `CC(=O)Nc1sccc1C(N)=O`, the Kd was > 4 mM (inactive).

On to `O=C(Nc1c[nH]c(=O)[nH]c1=O)c1cccs1`, for which the Kd was > 4 mM (inactive). Regarding `N[C@@H](CCC(=O)N[C@@H](CS)C(=O)NCC(=O)O)C(=O)O`, the Kd was > 4 mM (inactive).

Take `CC(=O)O[C@]1(C)CC[C@@]23CC1C(C)(C)[C@@H]2CC[C@H]3C`: the Kd is > 4 mM (inactive).

With `CCOC(=O)c1cc(C)n(C)n1`, the Kd was > 4 mM (inactive). On to `c1ccc(CCc2nc(-c3ccncc3)no2)cc1`, for which the Kd was > 4 mM (inactive). For the compound `Cc1cc(O)cc(=O)o1`, the Kd was > 4 mM (inactive). For `FC(F)(F)c1cc(-c2ccco2)nc(N2CCOCC2)n1` the value was > 4 mM (inactive). In the case of `CCOc1ccc(N2C(=O)CCC2=O)cc1` it was > 4 mM (inactive); in that of `COc1ccc2[nH]cc(CN(C)C)c2c1`, > 4 mM (inactive); in that of `CC1=C2[C@H]3OC(=O)[C@@H](C)[C@@H]3CC[C@@]2(C)C=CC1=O`, > 4 mM (inactive). For `CC(C)=CCc1c(O)cc2oc(C)cc(=O)c2c1O` the value was > 4 mM (inactive); for `Nc1nc2ccc(C(=O)O)cc2s1`, > 4 mM (inactive); for `C[n+]1cccc(C(=O)[O-])c1`, > 4 mM (inactive). For `CC(=O)N(C)Cc1nc2ccccc2n1C`, the Kd was > 4 mM (inactive).

As for `CC(=O)O[C@@H]1CC2C(C)(C)[C@H](O)C=C[C@]2(C)C2CC[C@]3(C)C(=CC(=O)O[C@H]3c3ccoc3)[C@@]21C` (stereo partly specified), the Kd was > 4 mM (inactive). In the case of `CS(=O)(=O)N1CCN(C(=O)c2ccccc2F)CC1` it was > 4 mM (inactive).

Turning to `O=C(O)c1ccc2c(c1)CCO2`, the Kd was > 4 mM (inactive). In the case of `COC(=O)c1c(SC)nc(-c2ccccc2)[nH]c1=O` it was > 4 mM (inactive); in that of `c1csc(-c2nnc3ccccn23)c1`, > 4 mM (inactive).
